# Assay results: patent US20240124434A1, “ATF6 INHIBITORS AND USES THEREOF” (Altos Labs, Inc., priority 2018, published 2024)
# Counter-ions that a name gives are not always drawn. Like-named read-outs stand apart in the source and are kept apart here.
# Test system: ATF6
# Test: ERSE ATF6-luciferase reporter assay (thapsigargin-induced ER stress)
# Assay type: cell-based, human
# Details: Homo sapiens, U2OS
# Protocol: Human bone osteosarcoma (U2-OS) cells were obtained from the American Type Culture Collection (ATCC HTB-96, ATCC Manassas, VA) and were cultured with growing medium containing Dulbecco's Modified Eagle's Medium (DMEM) (Cat. No.:SH30023.02, HyClone) supplemented with fetal bovine serum (FBS) 10% (Cat. No.: 16000044, Gibco) and 1% penicillin-streptomycin antibiotic cocktail (Cat. No.: SV30010, Hyclone).
# Cignal Lenti ATF6 luc reporter (Qiagen #CLS-6031L) was used to produce a stable cell line in U2-OS cells. […] The number of response elements as well as the intervening sequence between response elements has been experimentally optimized to maximize the signal to noise ratio.
# Compounds were prepared as 10 mM stock solutions and stored at −80° C.
# U2-OS ATF6 luc reporter cells were thawed 3-4 days and split once prior to assays. […] At the day of experiment, cells were pre-treated for 30 min with 50 μL growing medium containing either vehicle (dimethyl sulfoxide (DMSO)) (Cat. No.: D2650, Sigma-Aldrich) or 1 μM test compound. After the pre-incubation time, 50 μL of a solution containing 0.2 μM thapsigargin (Tg)(an ER stress inducer) was added to respective wells. This Tg solution also contained vehicle or test compounds at 1 μM. The final concentration of DMSO in each well was kept at 0.3%. Plates were incubated for 8 hr in humidified chambers.
# Finally, after 8 hr, plates were cooled to room temperature for 10 min prior to luciferase assays. Luciferase reactions were performed using Luciferase Assay System (Cat. No.: E4550, Promega). Briefly, each well was washed with 100 μl of PBS1X and then 20 μl of lysis reagent were added into each well. Plates were shaken for 10 min, then 50 μl of Luciferase Assay Reagent were added to each well and luminescence was read with an integration time of 1 s and a gain of 110 in a Synergy 4 Microplate reader.
# For the assessment of the half-maximal inhibitory concentration (IC50) for selected compounds, dose-response assays were performed. Compounds were serially diluted using DMSO starting at 30 μM until 1 nM. The assays were run as described above.
# [1] = 8 h, 1 μM test compound, thapsigargin-induced ER stress, U2-OS ATF6 luc reporter cells, 8 hr, read-out: Inh. ATF6-Luc @ 1 μM [%]
# [2] = dose-response 30 μM to 1 nM, thapsigargin-induced ER stress, U2-OS ATF6 luc reporter cells, read-out: IC50 ATF6-Luc reporter
# [3] = 1 μM test compound, thapsigargin-induced ER stress, U2-OS ATF6 luc reporter cells, 8 hr, read-out: Inh. ATF6-Luc @ 1 μM [%]
Compound,inhibition at 1 µM [1],IC50 [2],other results
"O=C(Nc1cnn(Cc2ccc(C(F)(F)F)cc2C(F)(F)F)c1)c1cncc(-c2cccnc2)c1 [Compound 15, N-(1-(2,4-bis(trifluoromethyl)benzyl)-1H-pyrazol-4-yl)-[3,3′-bipyridine]-5-carboxamide]",< 25%,> 10 µM,
"O=C(Nc1cnn([C@H]2CCc3ccccc32)c1)c1cc(-c2ccco2)on1 [Compound 150, (S)—N-(1-(2,3-dihydro-1H-inden-1-yl)-1H-pyrazol-4-yl)-5-(furan-2-yl)isoxazole-3-carboxamide]",< 25%,> 10 µM,
"O=C(/C=C/c1ccco1)Nc1cnn(Cc2ccc(C(F)(F)F)cc2C(F)(F)F)c1 [Compound 84, (E)—N-(1-(2,4-bis(trifluoromethyl)benzyl)-1H-pyrazol-4-yl)-3-(furan-2-yl)acrylamide]",,> 10 µM,inhibition at 1 µM [3]: < 25%
"C[C@H](c1ccc(C(F)(F)F)cc1C(F)(F)F)n1cc(NC(=O)c2cc(-c3ccccn3)[nH]n2)cn1 [Compound 119, (R)—N-(1-(1-(2,4-bis(trifluoromethyl)phenyl)ethyl)-1H-pyrazol-4-yl)-5-(pyridin-2-yl)-1H-pyrazole-3-carboxamide]",< 25%,> 10 µM,
"CC(C)(C)c1cc(C(=O)Nc2cnn(Cc3ccc(C(F)(F)F)cc3C(F)(F)F)c2)no1 [Compound 13, N-{1-[2,4-bis(trifluoromethyl)benzyl]-1H-pyrazol-4-yl}-5-tert-butyl-1,2-oxazole-3-carboxamide]",< 25%,> 10 µM,
"C[C@H](c1ccc(C(F)(F)F)cc1C(F)(F)F)n1cc(NC(=O)c2nnc(-c3ccco3)s2)cn1 [Compound 160, (R)—N-(1-(1-(2,4-bis(trifluoromethyl)phenyl)ethyl)-1H-pyrazol-4-yl)-5-(furan-2-yl)-1,3,4-thiadiazole-2-carboxamide]",< 25%,> 10 µM,
"O=C(Nc1cnn(Cc2c(Cl)cccc2Cl)c1)c1cc(-c2ccco2)on1 [Compound 24, N-(1-(2,6-dichlorobenzyl)-1H-pyrazol-4-yl)-5-(furan-2-yl) isoxazole-3-carboxamide]",< 25%,> 10 µM,
"Cc1nn(Cc2ccc(C(F)(F)F)cc2C(F)(F)F)cc1NC(=O)c1cc(-c2ccco2)on1 [Compound 92, N-(1-(2,4-bis(trifluoromethyl)benzyl)-3-methyl-1H-pyrazol-4-yl)-5-(furan-2-yl)isoxazole-3-carboxamide]",< 25%,> 10 µM,
"C[C@@H](c1ccc(C(F)(F)F)cc1C(F)(F)F)n1cc(NC(=O)c2ccccn2)cn1 [Compound 139, (S)—N-(1-(1-(2,4-bis(trifluoromethyl)phenyl)ethyl)-1H-pyrazol-4-yl)picolinamide]",< 25%,> 10 µM,
"Cc1cccc(-c2cc(C(=O)Nc3cnn(Cc4ccc(C(F)(F)F)cc4C(F)(F)F)c3)no2)n1 [Compound 115, N-(1-(2,4-bis(trifluoromethyl)benzyl)-1H-pyrazol-4-yl)-5-(6-methylpyridin-2-yl)isoxazole-3-carboxamide]",25 to 50%,> 10 µM,
"C[C@@H](c1ccc(C(F)(F)F)cc1C(F)(F)F)n1cc(NC(=O)c2nnc(-c3ccncn3)s2)cn1 [Compound 157, (S)—N-(1-(1-(2,4-bis(trifluoromethyl)phenyl)ethyl)-1H-pyrazol-4-yl)-5-(pyrimidin-4-yl)-1,3,4-thiadiazole-2-carboxamide]",< 25%,> 10 µM,
"CC(c1ccc(C(F)(F)F)cc1C(F)(F)F)n1cc(NC(=O)c2csc(-c3ccccn3)n2)cn1 (centres unmarked) [Compound 79, N-(1-(1-(2,4-bis(trifluoromethyl)phenyl)ethyl)-1H-pyrazol-4-yl)-2-(pyridin-2-yl)thiazole-4-carboxamide]",,,"inhibition at 1 µM (8 h, read-out: Inh. ATF6-Luc @ 1 μM [%]): < 25%; IC50 (read-out: IC50 ATF6-Luc reporter [μM]): > 10 µM"
"Cc1c(C(=O)Nc2cnn(Cc3ccc(C(F)(F)F)cc3C(F)(F)F)c2)noc1-c1ccccn1 [Compound 135, N-(1-(2,4-bis(trifluoromethyl)benzyl)-1H-pyrazol-4-yl)-4-methyl-5-(pyridin-2-yl)isoxazole-3-carboxamide]",25 to 50%,> 10 µM,
"CC(c1ccc(C(F)(F)F)cc1C(F)(F)F)n1cc(NC(=O)c2cc(-c3ccccn3)ccn2)cn1 (centres unmarked) [Compound 81, N-(1-(1-(2,4-bis(trifluoromethyl)phenyl)ethyl)-1H-pyrazol-4-yl)-[2,4′-bipyridine]-2′-carboxamide]",,> 10 µM,inhibition at 1 µM [3]: < 25%
"C[C@H](c1ccc(C(F)(F)F)cc1C(F)(F)F)n1cc(NC(=O)c2cc(-c3ncccc3Cl)on2)cn1 [Compound 34, (R)-N-(1-(1-(2,4-bis(trifluoromethyl)phenyl)ethyl)-1H-pyrazol-4-yl)-5-(3-chloropyridin-2-yl)isoxazole-3-carboxamide]",< 25%,> 10 µM,
"C[C@@H](c1ccc(C(F)(F)F)cc1C(F)(F)F)n1cc(NC(=O)c2cc(-c3ncccc3Cl)on2)cn1 [Compound 35, (S)-N-(1-(1-(2,4-bis(trifluoromethyl)phenyl)ethyl)-1H-pyrazol-4-yl)-5-(3-chloropyridin-2-yl)isoxazole-3-carboxamide]",< 25%,> 10 µM,
"O=C(Nc1cnn(Cc2ccc(C(F)(F)F)cc2C(F)(F)F)c1)c1nc(-c2cccc(F)c2)no1 [Compound 4, N-(1-(2,4-bis(trifluoromethyl)benzyl)-1H-pyrazol-4-yl)-3-(3-fluorophenyl)-1,2,4-oxadiazole-5-carboxamide formate]",,> 10 µM,inhibition at 1 µM [3]: < 25%
"Cc1nn(-c2ccc(C(F)(F)F)cc2C(F)(F)F)cc1NC(=O)c1cc(-c2ccccn2)on1 [Compound 90, N-(1-(2,4-bis(trifluoromethyl)phenyl)-3-methyl-1H-pyrazol-4-yl)-5-(pyridin-2-yl)isoxazole-3-carboxamide]",< 25%,> 10 µM,
"C[C@H](c1ccc(C(F)(F)F)cc1C(F)(F)F)n1cc(NC(=O)c2nnc(-c3ccncn3)s2)cn1 [Compound 156, (R)—N-(1-(1-(2,4-bis(trifluoromethyl)phenyl)ethyl)-1H-pyrazol-4-yl)-5-(pyrimidin-4-yl)-1,3,4-thiadiazole-2-carboxamide]",25 to 50%,< 1 µM,
"O=C(Nc1cnn([C@@H]2CCc3ccccc32)c1)c1cc(-c2ccco2)on1 [Compound 149, (R)—N-(1-(2,3-dihydro-1H-inden-1-yl)-1H-pyrazol-4-yl)-5-(furan-2-yl)isoxazole-3-carboxamide]",< 25%,> 10 µM,
"C[C@H](c1ccc(C(F)(F)F)cc1F)n1cc(NC(=O)c2cc(-c3ccccn3)on2)cn1 [Compound 108, (R)—N-(1-(1-(2-fluoro-4-(trifluoromethyl)phenyl)ethyl)-1H-pyrazol-4-yl)-5-(pyridine-2-yl)isoxazole-3-carboxamide]",< 25%,> 10 µM,
"Cc1nc(-c2ccccn2)sc1C(=O)Nc1cnn([C@H](C)c2ccc(C(F)(F)F)cc2C(F)(F)F)c1 [Compound 106, (R)—N-(1-(1-(2,4-bis(trifluoromethyl)phenyl)ethyl)-1H-pyrazol-4-yl)-4-methyl-2-(pyridin-2-yl)thiazole-5-carboxamide]",< 25%,> 10 µM,
"C[C@@H](c1ccc(C(F)(F)F)cc1C(F)(F)F)n1cc(NC(=O)c2cc(-c3cnccn3)on2)cn1 [Compound 132, (S)—N-(1-(1-(2,4-bis(trifluoromethyl)phenyl)ethyl)-1H-pyrazol-4-yl)-5-(pyrazin-2-yl)isoazole-3-carboxamide]",,,"inhibition at 1 µM (8 h, read-out: Inh. ATF6-Luc @ 1 μM [%], 1 μM test compound, thapsigargin-induced ER stress, U2-OS ATF6 luc reporter cells, 8 hr): < 25%; IC50 (read-out: IC50 ATF6-Luc reporter [μM], dose-response 30 μM to 1 nM, thapsigargin-induced ER stress, U2-OS ATF6 luc reporter cells): > 10 µM"
"O=C(Nc1cnn(C2CCc3ccccc32)c1)c1cc(-c2ccccn2)on1 (centres unmarked) [Compound 143, N-(1-(2,3-dihydro-1H-inden-1-yl)-1H-pyrazol-4-yl)-5-(pyridin-2-yl)isoxazole-3-carboxamide]",< 25%,> 10 µM,
"O=C(Nc1cnn(Cc2ccc(C(F)(F)F)cc2C(F)(F)F)c1)c1cnc(Nc2ccccn2)s1 [Compound 130, N-(1-(2,4-bis(trifluoromethyl)benzyl)-1H-pyrazol-4-yl)-2-(pyridin-2-ylamino)thiazole-5-carboxamide]",< 25%,> 10 µM,
